According to patent US20140057915A1, “KINASE INHIBITORS” (TOPIVERT PHARMA LIMITED, priority 2012, published 2014):

Assays:
cSrc = cSrc (Homo sapiens, UniProt P12931); assay: c-Src enzyme inhibition (FRET); format: biochemical; conditions: Table 4a1
Method: (§1) The enzyme inhibitory activities of compounds disclosed herein are determined by FRET using synthetic peptides labelled with both donor and acceptor fluorophores (Z-LYTE, Invitrogen Ltd., Paisley, UK).
(§2) The relevant enzyme (3000 ng/mL or 2000 ng/mL respectively, 2.5 μL) is incubated with the test compound (either 4 μg/mL, 0.4 μg/mL, 0.04 μg/mL, or 0.004 μg/mL, 2.5 μL each) for 2 hr at RT. The FRET peptides (8 μM, 2.5 μL), and appropriate ATP solutions (2.5 μL, 800 μM for c-Src, and 60 μM ATP for Syk) are then added to the enzymes/compound mixtures and incubated for 1 hr. Development reagent (protease, 5 μL) is added for 1 hr prior to detection in a fluorescence microplate reader (Varioskan® Flash, ThermoFisher Scientific).
(§3) In all cases, the site-specific protease cleaves non-phosphorylated peptide only and eliminates the FRET signal. Phosphorylation levels of each reaction are calculated using the ratio of coumarin emission (donor) over fluorescein emission (acceptor), for which high ratios indicate high phosphorylation and low ratios indicate low phosphorylation levels.

Syk = Syk (Homo sapiens, UniProt P43405); assay: Syk enzyme inhibition (FRET); format: biochemical; conditions: Table 4a1
Method: as §1, §2, §3

GSK3α = GSK3α (Homo sapiens, UniProt P49840); assay: GSK 3α enzyme inhibition (FRET), Method 1; format: biochemical; conditions: Table 4a1
Chain of GSK3α (P49840 whole entry): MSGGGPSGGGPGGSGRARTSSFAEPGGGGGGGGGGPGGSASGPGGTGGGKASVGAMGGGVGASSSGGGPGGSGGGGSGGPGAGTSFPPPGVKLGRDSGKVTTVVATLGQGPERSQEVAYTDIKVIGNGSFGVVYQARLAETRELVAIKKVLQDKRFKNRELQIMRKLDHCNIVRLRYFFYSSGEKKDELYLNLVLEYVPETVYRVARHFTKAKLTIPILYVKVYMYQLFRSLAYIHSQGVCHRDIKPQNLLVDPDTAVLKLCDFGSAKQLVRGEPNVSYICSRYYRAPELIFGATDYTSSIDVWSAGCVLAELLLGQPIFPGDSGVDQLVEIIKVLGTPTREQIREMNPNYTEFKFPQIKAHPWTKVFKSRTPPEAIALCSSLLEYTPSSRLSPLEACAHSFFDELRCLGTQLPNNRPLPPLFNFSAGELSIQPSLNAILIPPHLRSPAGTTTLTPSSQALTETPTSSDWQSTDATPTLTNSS
Method: as §1
The following two assay variants are used for determination of GSK 3a inhibition.
The inhibitory activities of compounds of the invention against the GSK 3a enzyme isoform (Invitrogen), are evaluated by determining the level of activation/phosphorylation of the target peptide. The GSK3-α protein (500 ng/mL, 2.5 μL) is mixed with the test compound (2.5 μL at either 4 μg/mL, 0.4 μg/mL, 0.04 μg/mL, or 0.004 μg/mL) for 2 hr at RT. The FRET peptide (8 μM, 2.5 μL), which is a phosphorylation target for GSK3α, and ATP (40 μM, 2.5 μL) are then added to the enzyme/compound mixture and the resulting mixture incubated for 1 hr. Development reagent (protease, 5 μL) is added for 1 hr prior to detection in a fluorescence microplate reader (Varioskan® Flash, ThermoFisher Scientific).
as §3

[1] = system: TNFα release, d-U937 cells; assay: LPS-induced TNFα release in d-U937 cells; format: cell-based; conditions: Homo sapiens, dU937; relative to 10 μg/mL BIRB796; Table 4c1; read-out: LPS Induced Release of Cytokine in d-U937 Cells, TNFα REC50
Method: (§4) (a) LPS-Induced TNFα/IL-8 Release in d-U937Cells
U937 cells, a human monocytic cell line, are differentiated into macrophage-type cells by incubation with PMA (100 ng/mL) for 48 to 72 hr. Cells are pre-incubated with final concentrations of test compound for 2 hr and are then stimulated with LPS (0.1 μg/mL; from E. Coli: 0111:B4, Sigma) for 4 hr. The supernatant is collected for determination of TNFα and IL-8 concentrations by sandwich ELISA (Duo-set, R&D systems). […] The relative 50% effective concentration (REC50) is determined from the resultant concentration-response curve. The inhibition of IL-8 production is calculated at each concentration of test compound by comparison with vehicle control.

[2] = system: IL-8 release, d-U937 cells; assay: LPS-induced IL-8 release in d-U937 cells; format: cell-based; conditions: Homo sapiens, dU937; Table 4c1; read-out: LPS Induced Release of Cytokine in d-U937 Cells, IL-8 IC50
Method: as §4
U937 cells, a human monocytic cell line, are differentiated into macrophage-type cells by incubation with PMA (100 ng/mL) for 48 to 72 hr. Cells are pre-incubated with final concentrations of test compound for 2 hr and are then stimulated with LPS (0.1 μg/mL; from E. Coli: 0111:B4, Sigma) for 4 hr. […] The relative 50% effective concentration (REC50) is determined from the resultant concentration-response curve.

[3] = system: ICAM-1 expression, BEAS2B cells; assay: Poly I:C-induced ICAM-1 expression in BEAS2B cells; format: cell-based; conditions: Homo sapiens, BEAS-2B; read-out: Poly IC induced ICAM1 in BEAS2B, IC50
Method: (f) Poly I:C-Induced ICAM-1 Expression in BEAS2B Cells
Poly I:C is used in these studies as a simple, RNA virus mimic. Poly I:C-Oligofectamine mixture (1 μg/mL Poly I:C, ±2% Oligofectamine, 25 μL; Invivogen Ltd., San Diego, Calif., and Invitrogen, Carlsbad, Calif., respectively) is transfected into BEAS2B cells (human bronchial epithelial cells, ATCC). Cells are pre-incubated with final concentrations of test compounds for 2 hr and the level of ICAM1 expression on the cell surface is determined by cell-based ELISA. At a time point 18 hr after poly I:C transfection, cells are fixed with 4% formaldehyde in PBS (100 μL) and then endogenous peroxidase is quenched by the addition of washing buffer (100 μL, 0.05% Tween in PBS: PBS-Tween) containing 0.1% sodium azide and 1% hydrogen peroxide. Cells are washed with wash-buffer (3×200 μL). and after blocking the wells with 5% milk in PBS-Tween (100 μL) for 1 hr, the cells are incubated with anti-human ICAM-1 antibody (50 μL; Cell Signalling Technology, Danvers, Mass.) in 1% BSA PBS overnight at 4° C.
The cells are washed with PBS-Tween (3×200 μL) and incubated with the secondary antibody (100 μL; HRP-conjugated anti-rabbit IgG, Dako Ltd., Glostrup, Denmark). […] The ICAM-1 signal is detected by reading the absorbance at 450 nm against a reference wavelength of 655 nm using a spectrophotometer. The cells are then washed with PBS-Tween (3×200 μL) and total cell numbers in each well are determined by reading absorbance at 595 nm after Crystal Violet staining (50 μL of a 2% solution in PBS) and elution by 1% SDS solution (100 μL) in distilled water. The measured OD 450-655 readings are corrected for cell number by dividing with the OD595 reading in each well. The inhibition of ICAM-1 expression is calculated at each concentration of test compound by comparison with vehicle control.

d-U937 cells = assay: Cell viability: MTT assay; format: cell-based, human; conditions: 1 μg/mL
Method: (l) The Effect of Test Compounds on Cell Viability: MTT Assay
Differentiated U937 cells are pre-incubated with each test compound (final concentration 1 μg/mL or 10 μg/mL in 200 μL media indicated below) under two protocols: the first for 4 hr in 5% FCS RPMI1640 media and the second in 10% FCS RPMI1640 media for 24 h. The supernatant is replaced with new media (200 μL) and MTT stock solution (10 μL, 5 mg/mL) is added to each well. After incubation for 1 hr the media are removed, DMSO (200 μL) is added to each well and the plates are shaken lightly for 1 hr prior to reading the absorbance at 550 nm. The percentage loss of cell viability is calculated for each well relative to vehicle (0.5% DMSO) treatment. Consequently an apparent increase in cell viability for drug treatment relative to vehicle is tabulated as a negative percentage.

Chain of cSrc (P12931 whole entry): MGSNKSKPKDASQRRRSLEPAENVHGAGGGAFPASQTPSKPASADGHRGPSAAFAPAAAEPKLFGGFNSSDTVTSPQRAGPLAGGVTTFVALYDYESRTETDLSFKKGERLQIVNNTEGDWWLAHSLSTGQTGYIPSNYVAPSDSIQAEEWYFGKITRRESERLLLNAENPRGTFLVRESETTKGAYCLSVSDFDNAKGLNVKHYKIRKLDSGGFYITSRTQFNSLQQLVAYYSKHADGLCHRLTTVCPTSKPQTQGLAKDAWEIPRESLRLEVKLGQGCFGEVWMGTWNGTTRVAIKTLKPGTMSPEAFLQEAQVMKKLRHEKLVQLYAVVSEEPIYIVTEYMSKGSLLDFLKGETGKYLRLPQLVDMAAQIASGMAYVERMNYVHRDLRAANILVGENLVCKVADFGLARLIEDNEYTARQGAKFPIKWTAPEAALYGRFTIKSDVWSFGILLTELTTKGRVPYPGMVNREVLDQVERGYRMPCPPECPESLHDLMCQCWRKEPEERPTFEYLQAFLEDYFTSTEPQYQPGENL

SMILES	IC50 (cSrc) [nM]	IC50 (Syk) [nM]	IC50 (GSK3α) [nM]	EC50 [1] [nM]	IC50 [2] [nM]	IC50 [3] [nM]	Cell viability at time point in d-U937 cells, 4 h (d-U937 cells)	Cell viability at time point in d-U937 cells, 24 h (d-U937 cells)
Cc1ccc(-n2nc(C(C)(C)C)cc2NC(=O)Nc2ccc(Oc3ccnc(Nc4cccc(C(=O)NCCN5CCOCC5)c4)n3)c3ccccc23)cc1 [Example 3, 3-((4-((4-(3-(3-(tert-Butyl)-1-(p-tolyl)-1H-pyrazol-5-yl)ureido)naphthalen-1-yl)oxy)pyrimidin-2-yl)amino)-N-(2-morpholinoethyl)benzamide]	1	11	286	0.6	1.6	0.7	−ve (−ve and +ve indicate that the value is below and above respectively, the no significant effect threshold, defined as 30% inhibition at 1 μg/mL at the time point indicated)	−ve (−ve and +ve indicate that the value is below and above respectively, the no significant effect threshold, defined as 30% inhibition at 1 μg/mL at the time point indicated)
COc1cc(C(=O)NCCO)ccc1Nc1nccc(Oc2ccc(NC(=O)Nc3cc(C(C)(C)C)nn3-c3ccc(C)cc3)c3ccccc23)n1 [Example 4, 4-((4-((4-(3-(3-(tert-Butyl)-1-(p-tolyl)-1H-pyrazol-5-yl)ureido)naphthalen-1-yl)oxy)pyrimidin-2-yl)amino)-N-(2-hydroxyethyl)-3-methoxybenzamide]	49	124	> 14300	0.7	6.6	4.6	−ve (−ve and +ve indicate that the value is below and above respectively, the no significant effect threshold, defined as 30% inhibition at 1 μg/mL at the time point indicated)	−ve (−ve and +ve indicate that the value is below and above respectively, the no significant effect threshold, defined as 30% inhibition at 1 μg/mL at the time point indicated)
COc1ccc(-n2nc(C(C)C)cc2NC(=O)Nc2ccc(Oc3ccnc(Nc4cc(OC)cc(C(=O)NCCN(C)C)c4)n3)c3ccccc23)cc1 [Example 6]	2	5	634	0.2	1.9	1.2	−ve (−ve and +ve indicate that the value is below and above respectively, the no significant effect threshold, defined as 30% inhibition at 1 μg/mL at the time point indicated)	−ve (−ve and +ve indicate that the value is below and above respectively, the no significant effect threshold, defined as 30% inhibition at 1 μg/mL at the time point indicated)
COc1cc(Nc2nccc(Oc3ccc(NC(=O)Nc4cc(C(C)C)nn4-c4ccc(OC)nc4)c4ccccc34)n2)cc(C(=O)NCCN2CCOCC2)c1 [Example 10, 3-((4-((4-(3-(3-Isopropyl-1-(6-methoxypyridin-3-yl)-1H-pyrazol-5-yl)ureido)naphthalen-1-yl)oxy)pyrimidin-2-yl)amino)-5-methoxy-N-(2-morpholinoethyl)benzamide]	2	4	> 12900	1.3	1.8	7.3	−ve (−ve and +ve indicate that the value is below and above respectively, the no significant effect threshold, defined as 30% inhibition at 1 μg/mL at the time point indicated)	−ve (−ve and +ve indicate that the value is below and above respectively, the no significant effect threshold, defined as 30% inhibition at 1 μg/mL at the time point indicated)
COc1ccc(-n2nc(C(C)C)cc2NC(=O)Nc2ccc(Oc3cc(Nc4cc(OC)cc(C(=O)NCCN5CCOCC5)c4)ncn3)c3ccccc23)cc1 [Example 14, 3-((6-((4-(3-(3-isopropyl-1-(4-methoxyphenyl)-1H-pyrazol-5-yl)ureido)naphthalen-1-yl)oxy)pyrimidin-4-yl)amino)-5-methoxy-N-(2-morpholinoethyl)benzamide]	4	> 1300	355	1.2	5	3	−ve (−ve and +ve indicate that the value is below and above respectively, the no significant effect threshold, defined as 30% inhibition at 1 μg/mL at the time point indicated)	+ve (−ve and +ve indicate that the value is below and above respectively, the no significant effect threshold, defined as 30% inhibition at 1 μg/mL at the time point indicated)
COc1ccc(-n2nc(C(C)C)cc2NC(=O)Nc2ccc(Oc3ccnc(Nc4cc(C)cc(C(=O)NCCN5CCOCC5)c4)n3)c3ccccc23)cc1 [Example 45, 3-((4-((4-(3-(3-isopropyl-1-(4-methoxyphenyl)-1H-pyrazol-5-yl)ureido)naphthalen-1-yl)oxy)pyrimidin-2-yl)amino)-5-methyl-N-(2-morpholinoethyl)benzamide]	–	> 1320	1630	1.6	0.7	135	−ve (−ve and +ve indicate that the value is below and above respectively, the no significant effect threshold, defined as 30% inhibition at 1 μg/mL at the time point indicated)	−ve (−ve and +ve indicate that the value is below and above respectively, the no significant effect threshold, defined as 30% inhibition at 1 μg/mL at the time point indicated)
